In patent US6291247A, “Methods of screening for factors that disrupt neurotrophin conformation and reduce neurotrophin biological activity” (priority 1996, dated 2001):
Bridges are numbered along the chain shown (N, C = ends). Where no end group is shown, it is not given here.

What was measured:
[1] = biological target: T1, p75^NTR and TrkA (Mus musculus, UniProt P01139); experiment: Binding of 125I-NGF to PC12 cells (p75NTR + TrkA); design: species or system rat; settings: 100 μM, 120 min
T1 construct: these cells express both NGF receptor types; endogenous in cells; host or cells: PC12 rat pheochromocytoma cells
T1 sequence (P01139 122-239): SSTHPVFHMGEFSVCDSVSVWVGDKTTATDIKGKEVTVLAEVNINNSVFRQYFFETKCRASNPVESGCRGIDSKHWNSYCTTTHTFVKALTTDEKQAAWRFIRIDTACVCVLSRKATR
Protocol: (§1) PC12 cells were grown in RPMI with 10% heat inactivated donor horse serum and 5% fetal calf serum. […] The tubes were incubated for 2 hr at 4° C. and 100 μl aliquots (providing triplicate data points for each sample) were transferred to 400 μl microcentrifuges containing 200 μl of 10% glycerol in HKR. Tubes were centrifuged for 2 minutes at 5,000 rpm, the tip containing the cell pellet cut off and radioactivity bound to the cells was determined.

[2] = test system: T2, p75^NTR and TrkA; experiment: Binding of 125I-NGF to PC12 cells (p75NTR + TrkA); design: species or system rat
T2 construct: these cells express both NGF receptor types; endogenous in cells; host or cells: PC12 rat pheochromocytoma cells
T2 sequence (P01139 122-239): as above
Protocol: as §1

[3] = biological target: T3, NGF (Mus musculus, UniProt P01139); experiment: NGF protomer crosslinking with BS3 (NGF conformation), metal ions; type: biochemical
T3 construct: homodimer
T3 sequence (P01139 122-239): as above
Protocol: For crosslinking NGF […], 0.4 mM BS^3 was added to the mixture and incubated for 30 minutes at 25° C. […] For CD studies, NGF (50 μg/ml) was dissolved in 50 mM Tris-HCl buffer and spectra recorded using a computer controlled Jasco J-600 spectropolarimeter. Samples were acquired in the absence or presence of Zn^2+ (100 μM) at 22° C. in a 2 mm quartz cell averaged over eight scans. Modification of His residues by DEPC was carried out as previously described, where the molar excess of DEPC added and the extent of reaction was determined by evaluating the loss of binding activity of the modified product.

[4] = test system: DRG neurons; experiment: NGF-mediated neurite outgrowth of DRG neurons, metal ions; type: cell-based, chick; settings: 100 μM
Protocol: Dissosiated cells enriched for sensory neurons were prepared from ED8 chick DRG as described (Dostaler, S. M. et al. Characterization of a distinctive motif of the low molecular weight neurotrophin receptor that modulates NGF-mediated neurite growth. Eur. J. Neurosci. 8, 870-879 (1996)). Neurons were seeded at a density of 800-1000 cells/well in Ham's F-12 containing 5% FCS and NGF at 10 pM into wells of Terasaki plates treated with polyysine. The cells were incubated with the indicated additives at 37° C. in a 5% CO2 atmosphere. The cells on the entire lower horizontal surface of the well were scored for neurite growth at 18-20 hours using an inverted microscope fitted with phase contrast optics. A neurite was scored if its caliber from the origin to terminal was constant and its length was equal to or greater than 1.5 cell body diameters. Neurite growth was corrected for background (no NGF).

[5] = test system: PC12 cells; experiment: NGF-dependent survival of PC12 cells; type: cell-based, rat
Protocol: (§2) Effects of divalent ions on NGF mediated survival and toxicity was evaluated using a colorimetric assay for the lysosomal enzyme acid phosphatase to determine cell number (Connolly, D. T., Knight, M. B., Harakas, N. K, Wittwer, A. J. & Feder, J. Determination of the number of endothelial cells in culture using an acid phosphatase assay. Anal. Biochem. 152, 136-140 (1986); Ueda, Y., Walsh, E., Nakanishi H. & Yoshida, K. A. colorometric assay method for the evaluation of neurotrophic activity in vitro. Neurosci. Lett. 165, 203-207 (1994)). […] To evaluate toxicity, the cells were seeded and maintained without NGF in RPMI with 10% heat inactivated donor horse serum and 5% fetal calf serum in the presence of additives. Loss in viable cell number was determined and expressed as a percent of control. NGF rescues PC12 cells from cell death in serum-free medium(Greene, L. A. Nerve growth factor prevents the death and stimulates neuronal differentiation of clonal PC12 pheochromocytoma cells in serum-free medium. J. Cell Biol. 78, 747-755 (1978)). NGF-dependent survival was assessed by harvesting PC12 cells in balanced salt solution followed with washing by 4 cycles of suspension and centrifugation in serum-free RPMI prior to seeding in 96 well plates. After incubation with additives, medium was removed from the wells and cells washed once with 200 μl PBS. Buffer containing 0.1M sodium acetate pH 5.5, 0.1% Triton X-100 and 10 mM p-nitrophenyl phosphate (Sigma 104 phosphatase substrate) was added to each well (100 μl). Plates were incubated at 37° C. for 3 hours. The reaction was stopped by the addition of 10 μl/well of 1N sodium hydroxide and the color development measured at 405 nm using a microplate reader. The relationship between cell number and enzyme activity was linear over the range 1000 to 15,000 cells.
(§3) To explore the ability of other transition metals to influence the biological activities of NGF, a series of cations known to mimic in certain respects the binding of zinc to proteins were tested. […] For this reason these ions were not tested in NGF- dependant growth phenomena. […] As these studies appeared to indicate potentially complex results upon metal ions binding to NGF, a receptor crosslinking system where specific receptor types could be identified was utilized.

[6] = test system: PC12 cells; experiment: Toxicity to PC12 cells; type: cell-based, rat; settings: for Toxicity (PC12 cell viability): 100 μM
Protocol: as §2, §3

[7] = test system: TrkA receptor; experiment: NGF-dependent TrkA phosphorylation in PC12 cells, metal ions; type: cell-based, rat; settings: 100 μM; PC12 cells
Protocol: Zn^2+ and/or other additives were allowed to equilibrate with NGF for 2 hours at 4° C. prior to addition of cells. PC12 cells were used at 10^6 cells/ml and incubated with 40 pM NGF for 15 minutes at 37° C. At the conclusion of the reaction, cells were washed, lysed in TBS containing 10% glycerol, 1% Triton X-100, 1 mM PMSF, 10 μg/ml aprotinin, 1 μg/ml leupeptin and 500 μM orthovanadate (lysis buffer, 10^8 cells/ml). The cellular debris was removed by centrifugation and the soluble proteins incubated with an anti-TrkA cytoplasmic domain antibody. Antibody complexes were isolated by incubating with immobilized protein G (Pierce Ultralink; 70 μl of a 50% slurry) for 2 hours at 4° C. The solid phase was washed extensively with lysis buffer and the pellet dissolved in SDS sample buffer. Proteins were resolved using 6% SDS PAGE and Western analysis performed with anti-phosphotyrosine 4G10 (UBI) visualized with ECL (Amersham).

[8] = biological target: p75^NTR /TrkA (Mus musculus, UniProt P01139); experiment: Receptor crosslinking of 125I-NGF with transition metal ions (receptor selectivity); type: binding; settings: 100 μM
Sequence of p75^NTR /TrkA (Mus musculus, UniProt P01139) (P01139 122-239): as above
Sequence of p75^NTR /TrkA (Mus musculus, UniProt P01139) (P07174 30-425 partner): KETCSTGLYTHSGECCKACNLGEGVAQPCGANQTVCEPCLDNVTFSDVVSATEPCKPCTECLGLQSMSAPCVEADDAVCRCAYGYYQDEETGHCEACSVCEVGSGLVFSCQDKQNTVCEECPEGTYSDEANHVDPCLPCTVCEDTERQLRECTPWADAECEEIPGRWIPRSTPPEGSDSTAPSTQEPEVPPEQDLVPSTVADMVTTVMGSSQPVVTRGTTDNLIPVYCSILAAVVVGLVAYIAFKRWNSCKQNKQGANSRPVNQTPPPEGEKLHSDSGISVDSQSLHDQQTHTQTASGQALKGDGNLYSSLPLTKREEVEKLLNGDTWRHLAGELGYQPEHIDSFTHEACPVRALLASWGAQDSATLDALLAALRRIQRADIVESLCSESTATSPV
Sequence of p75^NTR /TrkA (Mus musculus, UniProt P01139) (P35739 33-799 partner): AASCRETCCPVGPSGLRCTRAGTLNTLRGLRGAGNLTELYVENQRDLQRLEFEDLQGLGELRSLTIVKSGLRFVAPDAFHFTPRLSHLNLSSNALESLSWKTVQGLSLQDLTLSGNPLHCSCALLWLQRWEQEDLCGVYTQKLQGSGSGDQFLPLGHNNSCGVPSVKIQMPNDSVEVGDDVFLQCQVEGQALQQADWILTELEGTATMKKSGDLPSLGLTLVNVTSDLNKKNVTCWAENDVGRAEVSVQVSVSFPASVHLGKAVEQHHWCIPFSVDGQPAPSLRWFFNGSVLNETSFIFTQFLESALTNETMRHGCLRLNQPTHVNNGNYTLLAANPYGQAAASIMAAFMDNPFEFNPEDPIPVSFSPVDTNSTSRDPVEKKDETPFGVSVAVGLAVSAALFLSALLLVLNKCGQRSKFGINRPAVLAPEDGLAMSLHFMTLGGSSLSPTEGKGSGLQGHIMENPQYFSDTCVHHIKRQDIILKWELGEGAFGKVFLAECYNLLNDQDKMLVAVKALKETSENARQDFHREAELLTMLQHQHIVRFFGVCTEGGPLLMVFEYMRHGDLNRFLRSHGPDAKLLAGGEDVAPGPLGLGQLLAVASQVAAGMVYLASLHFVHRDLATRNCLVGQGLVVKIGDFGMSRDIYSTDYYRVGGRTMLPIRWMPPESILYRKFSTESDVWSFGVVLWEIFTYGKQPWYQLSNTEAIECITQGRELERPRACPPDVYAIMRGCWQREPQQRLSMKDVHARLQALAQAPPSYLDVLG
Protocol: as §3

[9] = test system: p75^NTR /TrkA; experiment: as above; type: binding
Sequence of p75^NTR /TrkA (P01139 122-239): as the sequence (P01139 122-239) above
Sequence of p75^NTR /TrkA (P07174 30-425 partner): as the sequence (P07174 30-425 partner) above
Sequence of p75^NTR /TrkA (P35739 33-799 partner): as the sequence (P35739 33-799 partner) above
Protocol: as §3

[10] = test system: dorsal root ganglion (DRG) neurons; experiment: NGF-dependent neurite growth of ED8 chick DRG neurons (FIG. 6, Terasaki plates); type: cell-based; settings: concentrations of 500 μk (so in the source)
Protocol: FIG. 6 is a graph showing the ability of R11 to inhibit the activity of NGF in vitro using a biological assay system. […] Dissociated cells enriched for sensory neurons were prepared from embryonic day 8 (ED8) chick dorsal root ganglion (DRG) as described (Sutter et al., J. Biol. Chem. 254: 5972-5982 (1979)). Neurons were seed into wells of Terasaki plates treated sequentially with poly-D-lysine and laminin at a density of 800-1000 cells/well in "synthetic" Dulbecco's modified Eagle medium (Bottenstein et al., Proc. Natl. Acad. Sci. USA 76: 514-517 (1979)) containing 1% fetal calf serum and NGF at […]. The cells were incubated with the additives indicated at 37° C. in a 5% CO2 atmosphere At 18-20 hours, the cells were fixed in 4% formaldehyde in phosphate-buffered saline and scored for neurite growth. The cells on the entire lower horizontal surface of the well were counted using an inverted microscope fitted with phase contrast optics. A neurite was scored if its caliber from origin to terminal was constant and its length was equal to or greater than 1.5 cell body diameters. Neurite growth was corrected for background (no NGF) growth in the presence and absence of peptide.
Such a profile is not typical of a competitive inhibitor. That is, a different dose response profile would be expected if R11 were simply competing with NGF for binding to a receptor. Neither of the less constrained synthetic Intermediates of R11, i.e., R11 (linear) or R11 (monocyclic), was as effective in blocking NGF-dependent neurite growth concentrations up to 200 μM.

[11] = biological target: T3, NGF; experiment: Cross-linking of NGF protomers in a cell-free system (Example 6); type: biochemical; settings: R11 analogues, concentration not given
[12] = test system: PC12 cells; experiment: Toxicity to PC12 cells; type: cell-based, rat

[Ca+2] [Ca^2+, reference compound]
steady-state specific binding of 125I-NGF (0.5 nM) to p75NTR and TrkA ([1]; ± SEM): 91 ± 7 % Control | Inhibition of 125I-NGF binding ([2]; 100 μM, CaEDTA together with Zn2+): neither Ca^2+ nor Mg^2+ displayed significant inhibition | NGF monomer crosslinking by BS3 ([3]; 0.1 nM 125I-NGF, CaEDTA together with Zn2+): no effect on crosslinking efficiency | NGF-induced neurite extension [4]: no effect | NGF-mediated survival of PC12 cells ([5]; 100 μM, serum-free, CaEDTA together with Zn2+): no effect | Toxicity to PC12 cells ([6]; in presence of serum, up to 100 μM): not toxic | NGF-induced TrkA phosphorylation [7]: not detected

[Au+3] [Au^3+]
Total Binding to PC12 cells ([1]; 125I-NGF): 107 ± 4 % control | Prevention of 125I-NGF binding to PC12 cells [2]: did not show appreciable inhibition | NGF Protomer Conformation (active/inactive) ([3]; 100 μM): active | Antagonism of NGF-dependent survival ([5]; high (1 nM) or low (50 pM) NGF): ability to antagonize the NGF-dependant survival | Survival @ 50 pM NGF ([5]; rat, pc12 cells, 100 µM): 0.1 ± 9 % control | Survival @ 1 nM NGF ([5]; rat, pc12 cells, 100 µM): -8 ± 5 % control | Toxicity (PC12 cell viability) [6]: 102 ± 13 % control | Receptor Selectivity (p75NTR/TrkA) [8]: TrkA only | Blocking of NGF binding to TrkA and p75NTR in receptor crosslinking [9]: selective for blocking the binding of NGF to TrkA but did not prevent the binding of NGF to p75^NTR

BR11: same amino acid composition as R11, except that the CVC domain has been moved to appear at the N-terminus (CVCCRASNPVESGC; disulfide 1-14, 3-4)
Inhibition of NGF-mediated neurite growth [10]: did not inhibit NGF-mediated neurite growth | Cross-linking of NGF promoters (NGF dimer disruption assay) [11]: not effective in influencing the crosslinking of NGF promoters

[Hg+2] [Hg^2+]
Toxicity (PC12 cell viability) [6]: 3 ± 0.8 % control | Toxicity to PC12 cells in serum-free conditions [12]: toxic to PC12 cells

[Co+2] [Co^2+]
Toxicity (PC12 cell viability) [6]: 52 ± 14 % control | Toxicity to PC12 cells in serum-free conditions [12]: toxic to PC12 cells
